Data taken from patent US20190110476A1, “NOVEL ISOTHIAZOLAMIDES, PROCESSES FOR THEIR PREPARATION AND THEIR USE AS FUNGICIDES” (priority 2014, published 2019).
Marks after values point to notes of the source that are not given here.

Test: Measurement of LogP values by HPLC on reversed phase columns (EEC directive 79/831 Annex V.A8)
Type: physicochemical
Conditions: not given
Outline: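 Following EEC directive 79/831 Annex V.A8, lipophilicity was derived from retention on reversed-phase HPLC columns. Separate values are given per diastereoisomer, and UV lambda-max (200–400 nm) was read at the peak signals.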

| LogP | LogP [a] | LogP [b] | SMILES |
| --- | --- | --- | --- |
| – | 1.96^[a] | – | O=C(NCc1cc(F)c(F)c(F)c1)c1snc(N=S2CCCC2)c1Cl [II-045] |
| – | 1.68^[a] | – | CS(C)=Nc1nsc(C(=O)NCc2cc(F)c(F)c(F)c2)c1Cl [II-046] |
| – | 1.57^[a] | – | CS(C)=Nc1nsc(C(=O)NCc2ccc(F)c(F)c2F)c1Cl [II-047] |
| – | 1.83^[a] | – | O=C(NCc1ccc(F)c(F)c1F)c1snc(N=S2CCCC2)c1Cl [II-048] |
| – | 2.47^[a] | – | CS(C)(=O)=Nc1nsc(C(=O)NCC2CCCCC2)c1Cl [II-049] |
| – | 3.51^[a] | – | Cc1ccc(S(C)=Nc2nsc(C(=O)NCC3CCCCC3)c2Cl)cc1 (stereo not drawn) [II-050] |
| – | 2.00^[a] | – | CCS(CC)=Nc1nsc(C(=O)NCC2CCCCC2)c1Cl [II-052] |
| – | 1.53^[a] | – | CS(C)=Nc1nsc(C(=O)NCC2CCCCC2)c1F [II-053] |
| – | 3.10^[a] | – | Cc1ccc(S(C)=Nc2nsc(C(=O)NCC3CCCCC3)c2F)cc1 (stereo not drawn) [II-054] |
| – | 1.72^[a] | – | O=C(NCC1CCCCC1)c1snc(N=S2CCCC2)c1F [II-055] |
| – | 1.30^[a] | – | CS(C)=Nc1nsc(C(=O)NCc2ccc(F)cc2F)c1F [II-057] |
| – | 1.57^[a] | – | O=C(NCc1ccc(F)cc1F)c1snc(N=S2CCCC2)c1F [II-059] |
| – | 0.32^[a] | – | CS(C)=Nc1nsc(C(=O)NCC2CCCC2)c1F [II-061] |
| – | 4.37 | 4.25 | COc1ccc(CNc2nsc(C(=O)N3CCCc4ccc(C(F)(F)F)cc43)c2Cl)cc1 [II-062] |
| – | 3.72^[a] | – | COc1ccc(CNc2nsc(C(=O)N3CCCc4cc(OC)ccc43)c2Cl)cc1 [II-063] |
| – | 3.68^[a] | – | COc1ccc(CNc2nsc(C(=O)N3CCc4ccccc4C3)c2Cl)cc1 [II-064] |

| LogP | LogP [a] | LogP [b] | SMILES |
| --- | --- | --- | --- |
| – | 3.73^[a] | – | COc1ccc(CNc2nsc(C(=O)N3CCc4cc(F)ccc4C3)c2Cl)cc1 [II-065] |
| – | 4.37^[a] | – | COc1ccc(CNc2nsc(C(=O)N3CCCc4cc(Cl)ccc43)c2Cl)cc1 [II-066] |
| – | 4.24 | 4.14 | COc1ccc(CNc2nsc(C(=O)N3CCCc4cccc(C)c43)c2Cl)cc1 [II-067] |
| – | 4.66 | 4.55 | COc1ccc(CNc2nsc(C(=O)N3CCc4c(Cl)ccc(Cl)c4C3)c2Cl)cc1 [II-068] |
| – | 3.83 | 3.76 | COc1ccc(CNc2nsc(C(=O)N3CCc4ccccc43)c2Cl)cc1 [II-069] |
| – | 1.43^[a] | – | CS(C)=Nc1nsc(C(=O)NCc2cc(F)c(F)cc2F)c1F [II-072] |
| – | 2.87^[a] | – | Cc1ccc(S(C)=Nc2nsc(C(=O)NCc3cc(F)c(F)cc3F)c2F)cc1 (stereo not drawn) [II-073] |
| – | 1.53^[a] | – | O=C(NCc1cc(F)c(F)cc1F)c1snc(N=S2CCCC2)c1F [II-074] |
| – | 1.39^[a] | – | CS(C)=Nc1nsc(C(=O)NCc2ccc(F)c(F)c2F)c1F [II-076] |
| – | 2.73^[a] | – | Cc1ccc(S(C)=Nc2nsc(C(=O)NCc3ccc(F)c(F)c3F)c2F)cc1 (stereo not drawn) [II-077] |
| – | 1.55^[a] | – | O=C(NCc1ccc(F)c(F)c1F)c1snc(N=S2CCCC2)c1F [II-078] |
| – | 1.40^[a] | – | CS(C)=Nc1nsc(C(=O)NCc2c(F)cc(F)cc2F)c1F [II-079] |
| – | 2.63^[a] | – | Cc1ccc(S(C)=Nc2nsc(C(=O)NCc3c(F)cc(F)cc3F)c2F)cc1 (stereo not drawn) [II-080] |
| – | 1.39^[a] | – | O=C(NCc1c(F)cc(F)cc1F)c1snc(N=S2CCCC2)c1F [II-081] |
| – | 5.92^[a] | – | O=C(NCCC1CCCCC1)c1snc(N=C(c2ccccc2)c2ccccc2)c1Cl [II-083] |

Further lines, the compound ahead of its results:

| SMILES | LogP | LogP [a] | LogP [b] |
| --- | --- | --- | --- |
| Nc1nsc(C(=O)NCC2CCCCC2Cl)c1F (stereo not drawn) [I-1536] | 2.16[a] | – | – |
| Nc1nsc(C(=O)NCC2CCCCC2)c1N [I-1539] | 1.37[a] | – | – |
| COc1ccc(CNc2nsc(C(=O)NC3CC34CCCCC4)c2Cl)cc1 (stereo not drawn) [I-1548] | 4.39[a] | – | – |
| Nc1nsc(C(=O)NC2CC23CCCCC3)c1Cl (stereo not drawn) [I-1549] | 2.54[a] | – | – |
| Nc1nsc(C(=O)NCc2ccccc2Br)c1Cl [I-1553] | 1.88[a] | – | – |
| Nc1nsc(C(=O)NCC2CCCCC2C(F)(F)F)c1Cl (stereo not drawn) [I-1554] | 2.51[a] | – | – |
| COc1ccc(CNc2nsc(C(=O)NCc3ccc(C#N)cc3)c2Cl)cc1 [I-1555] | 3.23[a] | – | – |
| COc1ccc(CNc2nsc(C(=O)N(Cc3ccc(F)cc3F)C(=O)c3ccc(C(F)(F)F)cc3)c2Cl)cc1 [I-1556] | 5.14[a] | – | – |
| CC1CCCC(NC(=O)c2snc(N)c2Cl)C1 (stereo not drawn) [I-1563] | 2.37[a] | – | – |
| CC1CCCCC1NC(=O)c1snc(N)c1I (stereo not drawn) [I-1564] | 2.14[a] | – | – |
| Nc1nsc(C(=O)NCC2CCCCC2C(F)(F)F)c1Cl (stereo not drawn) [I-1566] | 2.63[a] | – | – |
| Nc1nsc(C(=O)NCC2CCCCC2C(F)(F)F)c1Cl (stereo not drawn) [I-1567] | 2.69[a] | – | – |
| COc1ccc(CNC(=O)c2snc(N)c2Cl)cc1O [I-1568] | 1.03[a] | – | – |
| CC(NC(=O)c1snc(N)c1Cl)C1CCCCC1 (stereo not drawn) [I-1569] | 2.84[a] | – | – |
| CC(C)(C)OC(=O)Nc1nsc(C(=O)NCC2CCCCC2Cl)c1Cl (stereo not drawn) [I-1571] | 3.53[a] | – | – |
| CC(C)(C)OC(=O)Nc1nsc(C(=O)NCC2CCCCC2Cl)c1F (stereo not drawn) [I-1572] | 3.34[a] | – | – |
| CC(C)(C)OC(=O)Nc1nsc(C(=O)NCC2CCCCC2Cl)c1Cl (stereo not drawn) [I-1578] | 3.52[a] | – | – |
| Nc1nsc(C(=O)NCC2CCC(Cl)CC2)c1Cl (stereo not drawn) [I-1579] | 2.20[a] | – | – |
| Nc1nsc(C(=O)NCC2CCCC(Cl)C2)c1Cl (stereo not drawn) [I-1580] | 2.23[a] | – | – |
| CC(C)(C)OC(=O)Nc1nsc(C(=O)NCC2CCCCC2Cl)c1Cl (stereo not drawn) [I-1581] | 3.56[a] | – | – |

| SMILES | LogP | LogP [a] | LogP [b] |
| --- | --- | --- | --- |
| O=C(NC1CCCCC1)c1snc(N=C(c2ccccc2)c2ccccc2)c1Cl [II-001] | – | 5.13^[a] | – |
| C[C@H](NC(=O)c1snc(N=C(c2ccccc2)c2ccccc2)c1Cl)C1CCCCC1 [II-003] | – | 5.93^[a] | – |
| O=C(NCc1ccccc1Cl)c1snc(N=C(c2ccccc2)c2ccccc2)c1Cl [II-004] | – | 4.89^[a] | – |
| O=C(NCC1CCCO1)c1snc(N=C(c2ccccc2)c2ccccc2)c1Cl (stereo not drawn) [II-005] | – | 3.83^[a] | – |
| O=C(NCC1CCOCC1)c1snc(N=C(c2ccccc2)c2ccccc2)c1Cl [II-006] | – | 3.60^[a] | – |
| O=C(NCC1CCCOC1)c1snc(N=C(c2ccccc2)c2ccccc2)c1Cl (stereo not drawn) [II-007] | – | 3.71^[a] | – |
| O=C(NCC1CCCCO1)c1snc(N=C(c2ccccc2)c2ccccc2)c1Cl (stereo not drawn) [II-008] | – | 4.55^[a] | – |
| C[C@H](NC(=O)c1snc(NS(=O)(=O)c2ccccc2)c1Cl)C1CCCCC1 [II-009] | – | 3.75^[a] | – |
| COc1ccc(CNc2nsc(C(=O)NC(C)Cc3ccccc3Cl)c2Cl)cc1 (stereo not drawn) [II-010] | – | 4.33^[a] | – |
| CC(Cc1ccccc1Cl)NC(=O)c1snc(N)c1Cl (stereo not drawn) [II-011] | – | 2.64^[a] | – |
| O=C(NCc1ccccc1F)c1snc(N(S(=O)(=O)c2ccccc2)S(=O)(=O)c2ccccc2)c1Cl [II-012] | – | 4.15^[a] | – |
| COc1ccc2c(c1)CCCN2C(=O)c1snc(N)c1Cl [II-017] | – | 2.11 | 2.06 |
| Nc1nsc(C(=O)N2CCCc3ccc(C(F)(F)F)cc32)c1Cl [II-018] | – | 2.78 | 2.71 |
| Nc1nsc(C(=O)N2CCc3cc(F)ccc3C2)c1Cl [II-019] | – | 2.09 | 2.05 |
| Nc1nsc(C(=O)N2CCc3ccccc3C2)c1Cl [II-020] | – | 2.02 | 1.98 |
| Cc1cccc2c1N(C(=O)c1snc(N)c1Cl)CCC2 [II-021] | – | 2.43 | 2.36 |
| Nc1nsc(C(=O)N2CCc3c(Cl)ccc(Cl)c3C2)c1Cl [II-022] | – | 2.88 | 2.82 |
| COc1ccc(CNc2nsc(C(=O)NC(C)Cc3ccc(Cl)cc3)c2Cl)cc1 (stereo not drawn) [II-023] | – | 4.32^[a] | – |
| C[C@H](NC(=O)c1snc(N=CN2CCCC2)c1Cl)C1CCCCC1 [II-024] | – | 2.73^[a] | – |
| C[C@H](NC(=O)c1snc(N=CN(C)C)c1Cl)C1CCCCC1 [II-025] | – | 3.13^[a] | – |

| SMILES | LogP | LogP [a] | LogP [b] |
| --- | --- | --- | --- |
| Nc1nsc(C(=O)N2CCCc3cc(Cl)ccc32)c1Cl [II-026] | – | 2.66 | 2.60 |
| CC(Cc1ccc(Cl)cc1)NC(=O)c1snc(N)c1Cl (stereo not drawn) [II-027] | – | 2.68^[a] | – |
| Nc1nsc(C(=O)N2CCc3ccccc32)c1Cl [II-029] | – | 2.08 | 2.03 |
| O=C(NCc1ccc(Cl)cc1)c1snc(N=CN2CCCC2)c1Cl [II-030] | – | 2.17^[a] | – |
| CN(C)C=Nc1nsc(C(=O)NCc2ccc(Cl)cc2)c1Cl [II-031] | – | 2.41^[a] | – |
| CS(C)=Nc1nsc(C(=O)NCC2CCCCC2)c1Cl [II-032] | – | 1.82^[a] | – |
| O=C(NCC1CCCCC1)c1snc(N=S2CCCC2)c1Cl [II-033] | – | 2.15^[a] | – |
| O=C(NC1CCCC2CCCCC21)c1snc(N=CN2CCCC2)c1Cl (stereo not drawn) [II-036] | – | 3.52^[a] | – |
| O=C(NC1CCCC2CCCCC21)c1snc(N=CN2CCCC2)c1Cl (stereo not drawn) [II-037] | – | 3.83^[a] | – |
| CN(C)C=Nc1nsc(C(=O)NC2CCCC3CCCCC32)c1Cl (stereo not drawn) [II-038] | – | 3.94^[a] | – |
| CS(C)=Nc1nsc(C(=O)NCc2ccc(F)cc2F)c1Cl [II-041] | – | 1.38^[a] | – |
| O=C(NCc1ccc(F)cc1F)c1snc(N=S2CCCC2)c1Cl [II-042] | – | 1.64^[a] | – |
| CS(C)=Nc1nsc(C(=O)NCc2c(F)cc(F)cc2F)c1Cl [II-043] | – | 1.42^[a] | – |
| O=C(NCc1c(F)cc(F)cc1F)c1snc(N=S2CCCC2)c1Cl [II-044] | – | 1.66^[a] | – |
| CNS(=O)(=O)Nc1nsc(C(=O)NCC2CCCCC2)c1Cl [II-051] | – | 2.38^[a] | – |
| Cc1ccc(S(C)=Nc2nsc(C(=O)NCc3ccc(F)cc3F)c2F)cc1 (stereo not drawn) [II-058] | – | 2.74^[a] | – |
| CS(C)=Nc1nsc(C(=O)NCC2CCCO2)c1F (stereo not drawn) [II-070] | – | 0.44^[a] | – |
| CS(C)=Nc1nsc(C(=O)NCC2CCOC2)c1F (stereo not drawn) [II-071] | – | 0.26^[a] | – |

Same assay, conditions: HPLC LC-UV, acidic range, 0.1% formic acid in water and acetonitrile as eluent

| SMILES | chromatographic logP |
| --- | --- |
| O=C(NCC1CCCCC1)c1snc(N=C(c2ccccc2)c2ccccc2)c1Cl [II-002, 4-chloro-N-(cyclohexylmethyl)-3-[(diphenylmethylene)amino]isothiazole-5-carboxamide] | 5.65 |
